Results reported in patent US10988477B2 (Merck Patent GmbH, priority 2018, dated 2021).

Target: GCN2 kinase (Homo sapiens, UniProt Q9P2K8)
Assay: GCN2 enzyme inhibition assay (Transcreener ADP2 fluorescence polarization)
Assay type: biochemical
Settings: Enzyme activity for compounds of Formula IV; Ki(app), 280 μM ATP, 25° C.
In short: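 ADP formation read by Transcreener FP after a 1 h, 25 °C kinase reaction containing 280 μM ATP, 200 μM (RS)7 substrate and 4 nM GCN2, pH 7.5 Tris buffer. Compounds (0–8 μM final) were added 10 min before ATP. Percent inhibition gave IC50 and apparent Ki via tight-binding fit.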

GCN2 kinase, sequence (Q9P2K8 whole entry): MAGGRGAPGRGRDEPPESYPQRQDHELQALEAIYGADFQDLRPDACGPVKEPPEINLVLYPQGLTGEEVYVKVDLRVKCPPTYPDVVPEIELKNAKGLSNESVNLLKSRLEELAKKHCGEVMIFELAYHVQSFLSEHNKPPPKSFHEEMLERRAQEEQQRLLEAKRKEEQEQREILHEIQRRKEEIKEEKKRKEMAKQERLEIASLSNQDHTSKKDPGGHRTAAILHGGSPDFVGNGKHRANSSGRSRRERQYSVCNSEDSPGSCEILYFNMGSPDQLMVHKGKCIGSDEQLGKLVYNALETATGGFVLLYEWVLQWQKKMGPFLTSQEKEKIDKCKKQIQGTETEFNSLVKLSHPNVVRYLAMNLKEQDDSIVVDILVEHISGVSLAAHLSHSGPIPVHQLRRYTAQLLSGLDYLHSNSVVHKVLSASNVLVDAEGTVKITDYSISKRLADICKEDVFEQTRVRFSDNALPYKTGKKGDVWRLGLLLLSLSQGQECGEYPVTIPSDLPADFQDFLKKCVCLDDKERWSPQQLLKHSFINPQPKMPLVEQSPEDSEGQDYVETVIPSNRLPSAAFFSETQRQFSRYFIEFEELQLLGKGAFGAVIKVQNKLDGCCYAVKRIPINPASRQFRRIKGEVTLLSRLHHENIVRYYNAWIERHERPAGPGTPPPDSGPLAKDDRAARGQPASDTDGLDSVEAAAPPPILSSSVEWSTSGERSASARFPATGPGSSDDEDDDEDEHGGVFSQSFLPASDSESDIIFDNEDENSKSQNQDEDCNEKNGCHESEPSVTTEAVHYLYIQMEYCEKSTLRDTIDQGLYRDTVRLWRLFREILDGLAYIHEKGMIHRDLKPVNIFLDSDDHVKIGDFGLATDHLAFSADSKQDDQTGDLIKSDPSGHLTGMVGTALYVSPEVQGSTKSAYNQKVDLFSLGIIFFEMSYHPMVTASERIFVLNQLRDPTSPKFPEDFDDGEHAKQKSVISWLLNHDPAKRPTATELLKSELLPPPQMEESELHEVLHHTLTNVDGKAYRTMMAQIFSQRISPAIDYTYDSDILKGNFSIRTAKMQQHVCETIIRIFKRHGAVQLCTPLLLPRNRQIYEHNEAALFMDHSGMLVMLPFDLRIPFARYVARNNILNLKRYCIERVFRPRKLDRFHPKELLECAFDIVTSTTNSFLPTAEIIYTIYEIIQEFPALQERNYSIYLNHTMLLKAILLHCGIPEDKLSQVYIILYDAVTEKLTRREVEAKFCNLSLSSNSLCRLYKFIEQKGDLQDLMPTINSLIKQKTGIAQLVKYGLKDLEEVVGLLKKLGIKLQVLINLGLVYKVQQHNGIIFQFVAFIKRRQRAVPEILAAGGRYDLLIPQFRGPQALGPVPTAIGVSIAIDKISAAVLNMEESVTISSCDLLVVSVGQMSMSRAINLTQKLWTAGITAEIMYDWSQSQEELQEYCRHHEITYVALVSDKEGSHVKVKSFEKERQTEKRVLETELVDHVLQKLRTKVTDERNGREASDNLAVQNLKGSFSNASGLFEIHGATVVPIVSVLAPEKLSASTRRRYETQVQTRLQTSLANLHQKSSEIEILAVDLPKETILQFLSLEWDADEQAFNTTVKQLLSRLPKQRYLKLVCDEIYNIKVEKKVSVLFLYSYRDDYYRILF

Structure (SMILES)	Ki [nM]
COCCn1ccc(C(=O)N[C@H]2CCCN(c3ccnc(-c4cnc5cnc(C(F)(F)F)cn45)n3)C2)n1 [IV-745]	> 1000
CN1CCN(c2cccc(-c3cnc4cnc(C(N)=O)cn34)n2)CC1 [IV-212, 3-(6-(4-Methylpiperazin-1-yl)pyridin-2-yl)imidazo[1,2-a]pyrazine-6-carboxamide]	100 to 1000
O=C1NCCC12CCN(c1ccnc(-c3cnc4cnc(C(F)(F)F)cn34)n1)C2 (centres unmarked) [IV-533, 7-(2-(6-(Trifluoromethyl)imidazo[1,2-a]pyrazin-3-yl)pyrimidin-4-yl)-2,7-diazaspiro[4.4]nonan-1-one]	100 to 1000
NC(=O)CC1CCN(c2ccnc(-c3cnc4cnc(C(F)(F)F)cn34)n2)CC1 [IV-605, 2-(1-(2-(6-(Trifluoromethyl)imidazo[1,2-a]pyrazin-3-yl)pyrimidin-4-yl)piperidin-4-yl)acetamide]	100 to 1000
C[S+]([O-])CC1CCN(c2ccnc(-c3cnc4cnc(C(F)(F)F)cn34)n2)C1 (centres unmarked) [IV-603, 3-(4-(3-((Methylsulfinyl)methyl)pyrrolidin-1-yl)pyrimidin-2-yl)-6-(trifluoromethyl)imidazo[1,2-a]pyrazine]	100 to 1000

The remaining lines, values ahead:

Ki [nM]	Structure (SMILES)
100 to 1000	CN1CCCC2(CCN(c3ccnc(-c4cnc5cnc(C(F)(F)F)cn45)n3)C2)C1=O (centres unmarked) [IV-554, 7-Methyl-2-(2-(6-(trifluoromethyl)imidazo[1,2-a]pyrazin-3-yl)pyrimidin-4-yl)-2,7-diazaspiro[4.5]decan-6-one]
10 to 100	FC(F)(F)c1cn2c(-c3nccc(N4CCCC(c5ccno5)C4)n3)cnc2cn1 (centres unmarked) [IV-317, 5-(1-(2-(6-(Trifluoromethyl)imidazo[1,2-a]pyrazin-3-yl)pyrimidin-4-yl)piperidin-3-yl)isoxazole]
100 to 1000	CC1CCN(c2ccnc(-c3cnc4cnc(C(F)(F)F)cn34)n2)CC1 [IV-517, 3-(4-(4-Methylpiperidin-1-yl)pyrimidin-2-yl)-6-(trifluoromethyl)imidazo[1,2-a]pyrazine]
100 to 1000	COCC1CCCCN(c2ccnc(-c3cnc4cnc(C(F)(F)F)cn34)n2)C1 (centres unmarked) [IV-509, 3-(4-(3-(Methoxymethyl)azepan-1-yl)pyrimidin-2-yl)-6-(trifluoromethyl)imidazo[1,2-a]pyrazine]
100 to 1000	FC(F)(F)c1cn2c(-c3nccc(N4CCCC5(CCOC5)C4)n3)cnc2cn1 (centres unmarked) [IV-496, 7-(2-(6-(Trifluoromethyl)imidazo[1,2-a]pyrazin-3-yl)pyrimidin-4-yl)-2-oxa-7-azaspiro[4.5]decane]
10 to 100	FC(F)(F)c1cn2c(-c3nccc(N4CCC(c5cccnc5)C4)n3)cnc2cn1 (centres unmarked) [IV-646, 3-(4-(3-(Pyridin-3-yl)pyrrolidin-1-yl)pyrimidin-2-yl)-6-(trifluoromethyl)imidazo[1,2-a]pyrazine]
< 10	Cc1nc(C2=CCCN(c3ccnc(-c4cnc5cnc(Br)cn45)n3)C2)c[nH]1 [IV-356, 6-Bromo-3-(4-(5-(2-methyl-1H-imidazol-4-yl)-3,6-dihydropyridin-1(2H)-yl)pyrimidin-2-yl)imidazo[1,2-a]pyrazine]
100 to 1000	O=S1(=O)CCCN1C1CCCN(c2ccnc(-c3cnc4cnc(C(F)(F)F)cn34)n2)C1 (centres unmarked) [IV-658, 2-(1-(2-(6-(Trifluoromethyl)imidazo[1,2-a]pyrazin-3-yl)pyrimidin-4-yl)piperidin-3-yl)isothiazolidine 1,1-dioxide]
10 to 100	C[C@H]1[C@H](c2cn[nH]c2)OCCN1c1ccnc(-c2cnc3cnc(Cl)cn23)n1 (racemic) [IV-236, Trans-4-(2-(6-Chloroimidazo[1,2-a]pyrazin-3-yl)pyrimidin-4-yl)-3-methyl-2-(1H-pyrazol-4-yl)morpholine]
100 to 1000	Cc1[nH]ncc1C1NC(C)CN(c2ccnc(-c3cnc4cnc(Cl)cn34)n2)C1C (single isomer, unassigned) [IV-283, 6-Chloro-3-(4-(2,5-dimethyl-3-(5-methyl-1H-pyrazol-4-yl)piperazin-1-yl)pyrimidin-2-yl)imidazo[1,2-a]pyrazine]
100 to 1000	Cn1nc(C2CCCN(c3ccnc(-c4cnc5cnc(C(F)(F)F)cn45)n3)C2)cc1CCO (centres unmarked) [IV-662, 2-(1-Methyl-3-(1-(2-(6-(trifluoromethyl)imidazo[1,2-a]pyrazin-3-yl)pyrimidin-4-yl)piperidin-3-yl)-1H-pyrazol-5-yl)ethan-1-ol]
100 to 1000	O=C(N[C@@H]1CCCN(c2ccnc(-c3cnc4cnc(C(F)(F)F)cn34)n2)C1)c1cn[nH]c1 [IV-709]
10 to 100	Clc1cn2c(-c3nccc(N4CCNC(c5cn[nH]c5)C4)n3)cnc2cn1 (single isomer, unassigned) [IV-238, 3-(4-(3-(1H-Pyrazol-4-yl)piperazin-1-yl)pyrimidin-2-yl)-6-chloroimidazo[1,2-a]pyrazine]
100 to 1000	FC(F)(F)c1cn2c(-c3nccc(N4CCCC(c5n[nH]c(C6CCCCC6)n5)C4)n3)cnc2cn1 (centres unmarked) [IV-659, 3-(4-(3-(5-Cyclohexyl-1H-1,2,4-triazol-3-yl)piperidin-1-yl)pyrimidin-2-yl)-6-(trifluoromethyl)imidazo[1,2-a]pyrazine]
100 to 1000	NC(=O)C1CCN(c2ccnc(-c3cnc4cnc(C(F)(F)F)cn34)n2)CC1 [IV-611, 1-(2-(6-(Trifluoromethyl)imidazo[1,2-a]pyrazin-3-yl)pyrimidin-4-yl)piperidine-4-carboxamide]
100 to 1000	NC(=O)c1cn2c(-c3nccc(N4CC(=O)N5CCCCC5C4)n3)cnc2cn1 (centres unmarked) [IV-263, 3-(4-(4-Oxooctahydro-2H-pyrido[1,2-a]pyrazin-2-yl)pyrimidin-2-yl)imidazo[1,2-a]pyrazine-6-carboxamide]
100 to 1000	CC1NC(c2cn[nH]c2)C(C)N(c2ccnc(-c3cnc4cnc(C(F)(F)F)cn34)n2)C1C (single isomer, unassigned) [IV-336, 6-(Trifluoromethyl)-3-(4-(2,3,6-trimethyl-5-(1H-pyrazol-4-yl)piperazin-1-yl)pyrimidin-2-yl)imidazo[1,2-a]pyrazine]
100 to 1000	CC1CN(c2ccnc(-c3cnc4cnc(C(F)(F)F)cn34)n2)C(C)(C)C1 (centres unmarked) [IV-610, 6-(Trifluoromethyl)-3-(4-(2,2,4-trimethylpyrrolidin-1-yl)pyrimidin-2-yl)imidazo[1,2-a]pyrazine]
10 to 100	CC(C)(O)C1CCN(c2cccc(-c3cnc4cnc(C(N)=O)cn34)n2)CC1 [IV-226, 3-(6-(4-(2-Hydroxypropan-2-yl)piperidin-1-yl)pyridin-2-yl)imidazo[1,2-a]pyrazine-6-carboxamide]
100 to 1000	O=C1CN(C2CCCN(c3ccnc(-c4cnc5cnc(C(F)(F)F)cn45)n3)C2)CCN1 (centres unmarked) [IV-490, 4-(1-(2-(6-(Trifluoromethyl)imidazo[1,2-a]pyrazin-3-yl)pyrimidin-4-yl)piperidin-3-yl)piperazin-2-one]

Same assay, conditions: compounds of Formula II; 280 μM ATP, 4 nM GCN2 kinase

Ki [nM]	IC50 [nM]	Structure (SMILES)
< 10	–	CC(NS(C)(=O)=O)c1cccc(-c2cc(-c3cnc4ccc(C(F)F)nn34)ncn2)c1 (centres unmarked) [II-609, N-[1-[3-[6-[6-(Difluoromethyl)imidazo[1,2-b]pyridazin-3-yl]pyrimidin-4-yl]phenyl]ethyl]methanesulfonamide]
< 10	–	CC1CC(N=S(C)(C)=O)CN(c2cc(-c3cnc4ccc(C#N)nn34)ncn2)C1 (centres unmarked) [II-703, 3-(6-(3-((Dimethyl(oxo)-λ^6-sulfanylidene)amino)-5-methylpiperidin-1-yl)pyrimidin-4-yl)imidazo[1,2-b]pyridazine-6-carbonitrile]
10 to 1000	–	CC1C(CN=S(C)(C)=O)CCCN1c1cc(-c2cnc3ccc(C(F)F)nn23)ncn1 (centres unmarked) [II-584, (((1-(6-(6-(Difluoromethyl)imidazo[1,2-b]pyridazin-3-yl)pyrimidin-4-yl)-2-methylpiperidin-3-yl)methyl)imino)dimethyl-λ^6-sulfanone]
< 10	–	CS(=O)(=O)NCC1CC(C#N)CN(c2cc(-c3cnc4ccc(C(F)F)nn34)ncn2)C1 (centres unmarked)
10 to 1000	–	CC1CC(N=S(C)(C)=O)CN(c2cc(-c3cnc4ccc(C(F)F)nn34)c(F)cn2)C1 (single isomer, unassigned) [II-722, ((1-(4-(6-(Difluoromethyl)imidazo[1,2-b]pyridazin-3-yl)-5-fluoropyridin-2-yl)-5-methylpiperidin-3-yl)imino)dimethyl-λ^6-sulfanone]
10 to 1000	–	CCS(C)(=O)=NC1CC(C)CN(c2cc(-c3cnc4ccc(C(F)F)nn34)ncn2)C1 (centres unmarked) [II-635, ((1-(6-(6-(Difluoromethyl)imidazo[1,2-b]pyridazin-3-yl)pyrimidin-4-yl)-5-methylpiperidin-3-yl)imino)(ethyl)(methyl)-λ^6-sulfanone]
< 10	–	CC1C(CNS(C)(=O)=O)OCCN1c1cc(-c2cnc3ccc(C(F)F)nn23)ncn1 (single isomer, unassigned) [II-371, N-((4-(6-(6-(Difluoromethyl)imidazo[1,2-b]pyridazin-3-yl)pyrimidin-4-yl)-3-methylmorpholin-2-yl)methyl)methanesulfonamide]
10 to 1000	–	CC1C(CNS(C)(=O)=O)N(C(C)(C)C)CCN1c1cc(-c2cnc3ccc(C(F)F)nn23)ncn1 (centres unmarked) [II-559, N-((1-(tert-Butyl)-4-(6-(6-(difluoromethyl)imidazo[1,2-b]pyridazin-3-yl)pyrimidin-4-yl)-3-methylpiperazin-2-yl)methyl)methanesulfonamide]
–	> 1000	Cc1nn(C)cc1[C@H]1CN(c2cc(-c3cnc4ccc(C(F)(F)F)nn34)ncn2)C[C@H](C)O1 [II-758, (2S,6S)-2-(1,3-dimethyl-1H-pyrazol-4-yl)-6-methyl-4-(6-(6-(trifluoromethyl)imidazo[1,2-b]pyridazin-3-yl)pyrimidin-4-yl)morpholine]
10 to 1000	–	CC1CCN(c2cc(-c3cnc4ccc(C(F)F)nn34)ncn2)CC1N=S(C)(C)=O (single isomer, unassigned) [II-632, ((1-(6-(6-(Difluoromethyl)imidazo[1,2-b]pyridazin-3-yl)pyrimidin-4-yl)-4-methylpiperidin-3-yl)imino)dimethyl-λ^6-sulfanone]
